According to PubChem BioAssay (NCI):
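Grown in 96-well plates, cells were treated for 48 hours with each compound at five concentrations. Insufficient inhibition: endpoint recorded as highest concentration tested. GI50: concentration for 50% inhibition of growth. TGI marks complete inhibition of growth.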

Tests used:
Assay in all cases: inhibition of tumour cell growth, NCI panel, 48 h
SF-295 CNS = test system: SF-295 CNS
RPMI-8226 leukemia = test system: RPMI-8226 leukemia
SW-620 colon = test system: SW-620 colon
PC-3 prostate = test system: PC-3 prostate
MDA-MB-435 = test system: MDA-MB-435
SR leukemia = test system: SR leukemia
UACC-62 melanoma = test system: UACC-62 melanoma
OVCAR-4 ovarian = test system: OVCAR-4 ovarian
TK-10 renal = test system: TK-10 renal
RXF 393 renal = test system: RXF 393 renal
NCI-H460 lung = test system: NCI-H460 lung
HOP-92 NSCLC = test system: HOP-92 NSCLC
EKVX NSCLC = test system: EKVX NSCLC
CAKI-1 renal = test system: CAKI-1 renal
OVCAR-5 ovarian = test system: OVCAR-5 ovarian
MDA-MB-468 breast = test system: MDA-MB-468 breast
M14 melanoma = test system: M14 melanoma
SK-MEL-5 melanoma = test system: SK-MEL-5 melanoma
MDA-MB-231 breast = test system: MDA-MB-231 breast
SF-539 CNS = test system: SF-539 CNS
SNB-75 CNS = test system: SNB-75 CNS
NCI/ADR-RES ovarian = test system: NCI/ADR-RES ovarian
SK-OV-3 ovarian = test system: SK-OV-3 ovarian
UO-31 renal = test system: UO-31 renal
IGROV1 ovarian = test system: IGROV1 ovarian
HOP-62 NSCLC = test system: HOP-62 NSCLC
MOLT-4 leukemia = test system: MOLT-4 leukemia
SN12C renal = test system: SN12C renal
LOX IMVI melanoma = test system: LOX IMVI melanoma
MALME-3M melanoma = test system: MALME-3M melanoma
UACC-257 melanoma = test system: UACC-257 melanoma
HL-60(TB) leukemia = test system: HL-60(TB) leukemia
ACHN renal = test system: ACHN renal
HCT-15 colon = test system: HCT-15 colon
KM12 colon = test system: KM12 colon
U251 CNS = test system: U251 CNS
OVCAR-8 ovarian = test system: OVCAR-8 ovarian
MCF7 breast = test system: MCF7 breast
HT29 colon = test system: HT29 colon
DU-145 prostate = test system: DU-145 prostate
NCI-H226 lung = test system: NCI-H226 lung
K-562 leukemia = test system: K-562 leukemia
HCT-116 colon = test system: HCT-116 colon
A549 NSCLC = test system: A549 NSCLC
NCI-H23 lung = test system: NCI-H23 lung
COLO 205 colon = test system: COLO 205 colon
SK-MEL-28 melanoma = test system: SK-MEL-28 melanoma
CCRF-CEM leukemia = test system: CCRF-CEM leukemia
SNB-19 CNS = test system: SNB-19 CNS
SK-MEL-2 melanoma = test system: SK-MEL-2 melanoma
HS 578T breast = test system: HS 578T breast
NCI-H522 lung = test system: NCI-H522 lung
OVCAR-3 ovarian = test system: OVCAR-3 ovarian
BT-549 breast = test system: BT-549 breast
HCC-2998 colon = test system: HCC-2998 colon
T-47D breast = test system: T-47D breast
786-0 renal = test system: 786-0 renal
SF-268 CNS = test system: SF-268 CNS
A498 renal = test system: A498 renal

SMILES: COc1cnc2c(c1)C(=O)c1c-2n(CCCNCCO)c(=O)c2cc(OC)c(OC)cc12
- GI50 (SF-295 CNS): 0.418 µM
- TGI (SF-295 CNS): 12.3 µM
- GI50 (RPMI-8226 leukemia): 1.73 µM
- TGI (RPMI-8226 leukemia): 10.5 µM
- GI50 (SW-620 colon): 1.37 µM
- TGI (SW-620 colon): 18.2 µM
- GI50 (PC-3 prostate): 2.77 µM
- TGI (PC-3 prostate): 22.2 µM
- GI50 (MDA-MB-435): 6.88 µM
- TGI (MDA-MB-435): 20.7 µM
- GI50 (SR leukemia): 0.393 µM
- TGI (SR leukemia): 21.5 µM
- GI50 (UACC-62 melanoma): 1.17 µM
- TGI (UACC-62 melanoma): 10.4 µM
- GI50 (OVCAR-4 ovarian): 8.24 µM
- TGI (OVCAR-4 ovarian): 27.6 µM
- GI50 (TK-10 renal): 15.5 µM
- TGI (TK-10 renal): 30.1 µM
- GI50 (RXF 393 renal): 1.52 µM
- TGI (RXF 393 renal): 5.81 µM
- GI50 (NCI-H460 lung): 0.423 µM
- TGI (NCI-H460 lung): 8.75 µM
- GI50 (HOP-92 NSCLC): 5.07 µM
- TGI (HOP-92 NSCLC): 20.8 µM
- GI50 (EKVX NSCLC): 6.9 µM
- TGI (EKVX NSCLC): 20.4 µM
- GI50 (CAKI-1 renal): 1.85 µM
- TGI (CAKI-1 renal): 16.3 µM
- GI50 (OVCAR-5 ovarian): 4.91 µM
- TGI (OVCAR-5 ovarian): 18.4 µM
- GI50 (MDA-MB-468 breast): 1.08 µM
- TGI (MDA-MB-468 breast): 2.78 µM
- GI50 (M14 melanoma): 3.77 µM
- TGI (M14 melanoma): 15.8 µM
- GI50 (SK-MEL-5 melanoma): 0.72 µM
- TGI (SK-MEL-5 melanoma): 3.16 µM
- GI50 (MDA-MB-231 breast): 6.52 µM
- TGI (MDA-MB-231 breast): 20.3 µM
- GI50 (SF-539 CNS): 0.492 µM
- TGI (SF-539 CNS): 2.4 µM
- GI50 (SNB-75 CNS): 0.352 µM
- TGI (SNB-75 CNS): 10.3 µM
- GI50 (NCI/ADR-RES ovarian): 16.4 µM
- TGI (NCI/ADR-RES ovarian): > 100 µM
- GI50 (SK-OV-3 ovarian): 1.62 µM
- TGI (SK-OV-3 ovarian): 5.98 µM
- GI50 (UO-31 renal): 5.96 µM
- TGI (UO-31 renal): 19.5 µM
- GI50 (IGROV1 ovarian): 12.1 µM
- TGI (IGROV1 ovarian): 28 µM
- GI50 (HOP-62 NSCLC): 0.349 µM
- TGI (HOP-62 NSCLC): 3.78 µM
- GI50 (MOLT-4 leukemia): 0.311 µM
- TGI (MOLT-4 leukemia): 19.1 µM
- GI50 (SN12C renal): 3.28 µM
- TGI (SN12C renal): 16 µM
- GI50 (LOX IMVI melanoma): 0.475 µM
- TGI (LOX IMVI melanoma): 1.9 µM
- GI50 (MALME-3M melanoma): 7.2 µM
- TGI (MALME-3M melanoma): 21.6 µM
- GI50 (UACC-257 melanoma): 13.6 µM
- TGI (UACC-257 melanoma): > 100 µM
- GI50 (HL-60(TB) leukemia): 0.733 µM
- TGI (HL-60(TB) leukemia): 13.5 µM
- GI50 (ACHN renal): 2.1 µM
- TGI (ACHN renal): 13.2 µM
- GI50 (HCT-15 colon): 2.74 µM
- TGI (HCT-15 colon): 14.6 µM
- GI50 (KM12 colon): 12.4 µM
- TGI (KM12 colon): 25.9 µM
- GI50 (U251 CNS): 0.495 µM
- TGI (U251 CNS): 10.8 µM
- GI50 (OVCAR-8 ovarian): 3 µM
- TGI (OVCAR-8 ovarian): 16 µM
- GI50 (MCF7 breast): 0.174 µM
- TGI (MCF7 breast): 4.05 µM
- GI50 (HT29 colon): 1.46 µM
- TGI (HT29 colon): 10.9 µM
- GI50 (DU-145 prostate): 0.726 µM
- TGI (DU-145 prostate): 12.1 µM
- GI50 (NCI-H226 lung): 1.35 µM
- TGI (NCI-H226 lung): 9.83 µM
- GI50 (K-562 leukemia): 0.708 µM
- TGI (K-562 leukemia): 22.9 µM
- GI50 (HCT-116 colon): 1.15 µM
- TGI (HCT-116 colon): 2.85 µM
- GI50 (A549 NSCLC): 4.88 µM
- TGI (A549 NSCLC): 20.7 µM
- GI50 (NCI-H23 lung): 0.395 µM
- TGI (NCI-H23 lung): 2.34 µM
- GI50 (COLO 205 colon): 3.33 µM
- TGI (COLO 205 colon): 20 µM
- GI50 (SK-MEL-28 melanoma): 13.2 µM
- TGI (SK-MEL-28 melanoma): 26.2 µM
- GI50 (CCRF-CEM leukemia): 0.268 µM
- TGI (CCRF-CEM leukemia): 18.8 µM
- GI50 (SNB-19 CNS): 1.47 µM
- TGI (SNB-19 CNS): 15.3 µM
- GI50 (SK-MEL-2 melanoma): 17.1 µM
- TGI (SK-MEL-2 melanoma): 37.9 µM
- GI50 (HS 578T breast): 12.1 µM
- TGI (HS 578T breast): 43.1 µM
- GI50 (NCI-H522 lung): 0.459 µM
- TGI (NCI-H522 lung): 3.33 µM
- GI50 (OVCAR-3 ovarian): 4.52 µM
- TGI (OVCAR-3 ovarian): 16.9 µM
- GI50 (BT-549 breast): 9.48 µM
- TGI (BT-549 breast): 22.9 µM
- GI50 (HCC-2998 colon): 2.25 µM
- TGI (HCC-2998 colon): 10.8 µM
- GI50 (T-47D breast): 0.746 µM
- TGI (T-47D breast): 12.3 µM
- GI50 (786-0 renal): 2.54 µM
- TGI (786-0 renal): 14.9 µM
- GI50 (SF-268 CNS): 0.92 µM
- TGI (SF-268 CNS): 20.9 µM
- GI50 (A498 renal): 12.5 µM
- TGI (A498 renal): 25.6 µM
